# Assay results: article PMC10439230 (Scientific Reports, 2023)
# How the values were obtained:
# [1] = tested on: MRC-5 normal embryonic lung fibroblast cell line; assay: Cytotoxic activity assay (MTT), normal cells; type: cell-based; details: Homo sapiens, MRC5, 48 h exposure, read-out: Cell lines, IC50 (μM) MRC-5
# Excerpt: (§1) The synthetic compounds were screened for their cytotoxic activity using standard MTT or XTT methods[30] against a panel of nine human cancer cell lines and one normal cell line, including MDA-MB-231 (triple-negative breast cancer), T-47D (hormone-dependent breast cancer), HepG2 (hepatocellular carcinoma), A549 (lung adenocarcinoma), H69AR (multidrug-resistant small cell lung carcinoma), HuCCA-1 (cholangiocarcinoma derived from a patient), HeLa (cervical carcinoma), and two leukemia cell lines, HL-60 (acute promyelocytic leukemia) and MOLT-3 (T cell acute lymphoblastic leukemia). MRC-5 normal embryonic lung fibroblast cell line was used to represent normal cells. Chemotherapeutic drugs, doxorubicin and etoposide, were used as positive controls.
# (§2) The cells were seeded into 96-well plates (100 µL for adherent cells and 75 µL for suspended cells) at a density of 5000–20,000 cells per well, depending on their growth rates. Adherent and suspended cells were then allowed to grow at 37 °C with 95% humidity and 5% CO2 for 24 h and 30 min, respectively. The cytotoxicity assay was initiated by adding an equal volume of cell culture medium containing tested compound at predetermined concentrations. Following 48 h of exposure, cell viability was determined using MTT assay for adherent cells[51],[52]or XTT assay for suspeended cells. Briefly, for adherent cells, 100 µL of the MTT reagent was added to each well, and the microtiter plates were further incubated for 2.5–4 h. The medium was subsequently replaced with 100 µL of DMSO to dissolve the purple formazan before the absorbance at 550 nm was measured using a microplate reader (a SpectraMax Plus 384) with a reference wavelength of 650 nm. For suspended cells, 75 µL of the XTT reagent was added to each well, and the cells were further incubated for 4 h. Afterwards, the absorbance of orange formazan at 492 nm was measured with a reference wavelength of 690 nm using a microplate reader.
# [2] = tested on: HL-60 (acute promyelocytic leukemia); assay: Cytotoxic activity assay (XTT); type: cell-based, human; details: for IC50: Homo sapiens, HL-60, 48 h exposure, XTT, read-out: Cell lines, IC50 (μM) HL-60; for Selectivity Index (SI) values HL-60: SI = IC50 normal cell (MRC-5)/ IC50 cancer cell
# Excerpt: as §1, §2
# [3] = tested on: MOLT-3 (T cell acute lymphoblastic leukemia); assay: Cytotoxic activity assay (XTT); type: cell-based, human; details: for IC50: Homo sapiens, MOLT-3, 48 h exposure, XTT, read-out: Cell lines, IC50 (μM) MOLT-3; for Selectivity Index (SI) values MOLT-3: SI = IC50 normal cell (MRC-5)/ IC50 cancer cell
# Excerpt: as §1, §2
# [4] = tested on: H69AR (multidrug-resistant small cell lung carcinoma); assay: Cytotoxic activity assay (MTT); type: cell-based, human; details: for IC50: Homo sapiens, H69AR, 48 h exposure, MTT, read-out: Cell lines, IC50 (μM) H69AR; for Selectivity Index (SI) values H69AR: SI = IC50 normal cell (MRC-5)/ IC50 cancer cell
# Excerpt: as §1, §2
# [5] = tested on: T-47D (hormone-dependent breast cancer); assay: Cytotoxic activity assay (MTT); type: cell-based, human; details: for IC50: Homo sapiens, T47D, 48 h exposure, MTT, read-out: Cell lines, IC50 (μM) T47-D; for Selectivity Index (SI) values T47-D: SI = IC50 normal cell (MRC-5)/ IC50 cancer cell
# Excerpt: as §1, §2
# [6] = tested on: HeLa (cervical carcinoma); assay: Cytotoxic activity assay (MTT); type: cell-based, human; details: for IC50: Homo sapiens, 48 h exposure, MTT, read-out: Cell lines, IC50 (μM) HeLa; for Selectivity Index (SI) values HeLa: SI = IC50 normal cell (MRC-5)/ IC50 cancer cell
# Excerpt: as §1, §2
# [7] = tested on: HepG2 (hepatocellular carcinoma); assay: Cytotoxic activity assay (MTT); type: cell-based, human; details: for IC50: Homo sapiens, HepG2, 48 h exposure, MTT, read-out: Cell lines, IC50 (μM) HepG2; for Selectivity Index (SI) values HepG2: SI = IC50 normal cell (MRC-5)/ IC50 cancer cell
# Excerpt: as §1, §2
# [8] = tested on: HuCCA-1 (cholangiocarcinoma derived from a patient); assay: Cytotoxic activity assay (MTT); type: cell-based, human; details: for IC50: Homo sapiens, HuCC-A1, 48 h exposure, MTT, read-out: Cell lines, IC50 (μM) HuCCA-1; for Selectivity Index (SI) values HuCCA-1: SI = IC50 normal cell (MRC-5)/ IC50 cancer cell
# Excerpt: as §1, §2
# [9] = tested on: A549 (lung adenocarcinoma); assay: Cytotoxic activity assay (MTT); type: cell-based, human; details: for IC50: Homo sapiens, A549, 48 h exposure, MTT, read-out: Cell lines, IC50 (μM) A549; for Selectivity Index (SI) values A549: SI = IC50 normal cell (MRC-5)/ IC50 cancer cell
# Excerpt: as §1, §2
# [10] = tested on: MDA-MB-231 (triple-negative breast cancer); assay: Cytotoxic activity assay (MTT); type: cell-based, human; details: for IC50: Homo sapiens, MDA-MB-231, 48 h exposure, MTT, read-out: Cell lines, IC50 (μM) MDA-MB-231; for Selectivity Index (SI) values MDA-MB-231: SI = IC50 normal cell (MRC-5)/ IC50 cancer cell
# Excerpt: as §1, §2
Structure (SMILES),IC50 [1] [µM],IC50 [2] [µM],Selectivity Index (SI) values HL-60 [2],IC50 [3] [µM],Selectivity Index (SI) values MOLT-3 [3],IC50 [4] [µM],Selectivity Index (SI) values H69AR [4],IC50 [5] [µM],Selectivity Index (SI) values T47-D [5],IC50 [6] [µM],Selectivity Index (SI) values HeLa [6],IC50 [7] [µM],Selectivity Index (SI) values HepG2 [7],IC50 [8] [µM],Selectivity Index (SI) values HuCCA-1 [8],IC50 [9] [µM],Selectivity Index (SI) values A549 [9],IC50 [10] [µM],Selectivity Index (SI) values MDA-MB-231 [10]
"C#CCNC(=O)/C=C(\C)CC[C@H]1C(=C)CC[C@H]2C(C)(C)CCC[C@]12C [Compound 4c, (E)-3-Methyl-N-(prop-2-yn-1-yl)-5-((1S,4aS,8aS)-5,5,8a-trimethyl-2-methylenedecahydronaphthalen-1-yl)pent-2-enamide]",48.1 ± 0.62,24.13 ± 0.08,2.0,23.2 ± 1.03,2.1,113 ± 1.35,0.4,76.6 ± 4.68,0.6,28.1 ± 0.93,1.7,85.06 ± 0.61,0.6,52.7 ± 0.11,0.9,54.1 ± 1.17,0.9,27.5 ± 0.62,1.8
"C=C1CC[C@H]2C(C)(C)CCC[C@]2(C)[C@H]1CC/C(C)=C/C(=O)NCCCCCCCC [Compound 4d, (E)-3-Methyl-N-octyl-5-((1S,4aS,8aS)-5,5,8a-trimethyl-2-methylenedecahydronaphthalen-1-yl)pent-2-enamide]",> 120,> 120,1.0,> 120,1.0,> 120,1.0,> 120,1.0,> 120,1.0,> 120,1.0,> 120,1.0,> 120,1.0,> 120,1.0
"C=C1CC[C@H]2C(C)(C)CCC[C@]2(C)[C@H]1CC/C(C)=C/C(=O)Nc1ccccc1 [Compound 4e, (E)-3-Methyl-N-phenyl-5-((1S,4aS,8aS)-5,5,8a-trimethyl-2-methylene-decahydronaphthalen-1-yl)pent-2-enamide]",> 120,60.6 ± 4.97,2.2,25.9 ± 1.88,5.1,> 120,1.0,> 120,1.0,98.11 ± 0.08,1.3,> 120,1.0,> 120,1.0,46.9 ± 1.28,2.8,> 120,1.0
"C=C1CC[C@H]2C(C)(C)CCC[C@]2(C)[C@H]1CC/C(C)=C/C(=O)NCc1ccccc1 [Compound 4f, (E)-N-Benzyl-3-methyl-5-((1S,4aS,8aS)-5,5,8a-trimethyl-2-methylene-decahydronaphthalen-1-yl)pent-2-enamide]",> 120,87.3 ± 8.47,1.5,> 120,1.0,> 120,1.0,> 120,1.0,> 120,1.0,> 120,1.0,> 120,1.0,> 120,1.0,> 120,1.0
"C=C1CC[C@H]2C(C)(C)CCC[C@]2(C)[C@H]1CC/C(C)=C/C(=O)NCc1ccccn1 [Compound 4g, (E)-3-Methyl-N-(pyridin-2-ylmethyl)-5-((1S,4aS,8aS)-5,5,8a-trimethyl-2-methylenedecahydronaphthalen-1-yl)pent-2-enamide]",44.8 ± 1.62,22.7 ± 0.36,2.0,20.9 ± 0.99,2.1,92.7 ± 1.18,0.5,55.1 ± 2.8,0.8,46.7 ± 1.03,1.0,41.7 ± 1.46,1.1,46.2 ± 0.6,1.0,38.2 ± 0.49,1.2,35.1 ± 0.98,1.3
"C=C1CC[C@H]2C(C)(C)CCC[C@]2(C)[C@H]1CC/C(C)=C/C(=O)NCCc1c[nH]c2ccccc12 [Compound 4h, (E)-N-(2-(1H-Indol-3-yl)ethyl)-3-methyl-5-((1S,4aS,8aS)-5,5,8a-trimethyl-2-methylenedecahydronaphthalen-1-yl)pent-2-enamide]",48.2 ± 1.06,16.8 ± 0.61,2.9,17.1 ± 0.57,2.8,71.5 ± 2.47,0.7,> 120,0.4,20.7 ± 0.4,2.3,40.5 ± 2.25,1.2,42.4 ± 0.5,1.1,41.4 ± 2.48,1.2,23.5 ± 0.36,2.1
